Measurements from patent US9510521B2, “Use of abscisic acid to alter sensory characteristics of red grapes and wine” (Valent BioSciences Corporation, priority 2007, dated 2016).

Key:
Shiraz grapes [1] = experiment: Foliar S-ABA on Shiraz grapes about 3 weeks before veraison: grape quality at harvest and wine quality; format: in vivo; conditions: 200 ppm foliar spray approx. 3 weeks prior to veraison
Description: (§1) S-ABA (200 ppm) was applied by foliar spray using a standard vineyard airblast sprayer at 2000 L/ha to commercially grown Shiraz grapes approximately 3 weeks prior to initiation of veraison. The spray mix contained the surfactant/wetter Agral at 10 ml/100 L. Results reported are means of 4 replicates (grapes) and 3 replicates (wines) per treatment. Winemaking followed a standard small lot fermentation protocol with each replicate wine being made from 50 kg of harvested grapes.
However, at-harvest grape anthocyanin and wine color density and total phenolics are increased by S-ABA.

Shiraz grapes [2] = experiment: Sensory profile of Shiraz wine from S-ABA-treated fruit, 10 experienced sensory assessors; format: in vivo, grape; conditions: 200 ppm foliar spray, 10 assessors
Description: as §1
Using a nine-point hedonic scale rating (dislike=1 to like=9) the sensors judged wine from the S-ABA treatment higher than the untreated (6.2 vs. 5.0, respectively) and thus a technically better wine.

[3] = tested on: Cabernet Sauvignon grapes; experiment: Sensory panel rating of Cabernet Sauvignon wine from S-ABA treatment; format: in vivo, grape; conditions: 1-5 scale, 1 = low/short, 5 = high/long
Description: S-ABA (200 ppm) was applied by foliar spray to Cabernet Sauvignon grapes when sugar levels were approximately 11 Be using a standard vineyard airblast sprayer at approximately 2000 L/ha. The spray mix contained the surfactant/wetter Agral at 10 ml/100 L. Wine was prepared from the treated and untreated grapes.

Shiraz grapes [4] = experiment: Sensory panel of 6 assessors, Shiraz wine, drip irrigation S-ABA; format: in vivo, grape; conditions: 0.4 grams per vine via drip irrigation
Description: S-ABA (0.4 grams per vine) was applied to commercially grown Shiraz grapes through the drip irrigation system at approximately 3 weeks prior to initiation of veraison. No surfactant was added to the irrigation water. Results reported are means of 3 replicates. Winemaking followed a standard small lot fermentation protocol with each replicate wine being made from 50 kg of harvested grapes.
Table 5 illustrates that S-ABA increased anthocyanin and phenolics of grape/juice at crush and wine color density and total phenolics and reduced wine hue. S-ABA had no effect on sugar, pH, or total acidity of grapes/juice at crush or on alcohol or pH of wine.

Shiraz grapes [5] = experiment: Sensory panel of 6 assessors, Shiraz wine, foliar S-ABA at veraison; format: in vivo, grape; conditions: 200 ppm foliar spray at veraison
Description: S-ABA (200 ppm) was applied by foliar spray at veraison to commercially grown Shiraz grapes through standard agricultural spray equipment on 12 Jan. 2007. Kendeen 20 (Tween 20) was added to the spray mix at 50 ml/100 L. Reported results are means of 3 replicates. Winemaking followed a standard small lot fermentation protocol with each replicate wine being made from 50 kg of harvested grapes.

(S)-5-(1-hydroxy-2,6,6,-trimethyl-4-oxo-2-cyclohexen-1-yl)-3-methyl-(2Z,4E)-pentadienoic acid [S-ABA]
Wine hue (Shiraz grapes [1]): 0.56
Aroma (Shiraz grapes [2]; Shiraz wine sensory profile): more intense berry aroma
Color (Shiraz grapes [2]; Shiraz wine sensory profile): Increased intensity
Taste (Shiraz grapes [2]; Shiraz wine sensory profile): more fruity, more acidic taste
Hedonic scale (1-dislike, 9 like) (Shiraz grapes [2]; Shiraz wine, nine-point hedonic scale): 6.2
Body/fullness [3]: 1.7
Flavor intensity [3]: 2.7
Sensory panel of 6 assessors (Shiraz grapes [4]): more intense fruit and was less acidic
Sensory panel of 6 assessors (Shiraz grapes [5]): more intense fruit, spice and herbaceous flavors and more tannin
